According to patent US20180228711A1, “3-(4-HYDROXYPHENYL) PROPANOIC ACID AMIDE FOR USE IN TISSUE REPAIR AND/OR SKIN BRIGHTENING” (NMETICS IVS, priority 2015, published 2018):

How the values were obtained:
Format in all cases: cell-based
B10F16 mouse melanocytes = assay: skin de-pigmentation assay (cell pellet colour intensity)
Protocol: The assay was standardized using B10F16 mouse melanocytes with cell numbers at a density ranging from 5×10^4 to 1×10^5 cells per ml. […] The following day the cells were pre-treated with 80 μM of PA and 10 μM+control for 2 h, 24 h, 72 h and 96 h.
Cells were then collected, counted for cell number and equal numbers were pelleted. The cell pellet was visually observed for colour intensity and quantified. The same cell pellet was then used for protein extraction and immunoblot analysis.
Test solution preparation: Stock solutions of the test compound are prepared by dissolving in DMSO. The stock solutions were filter sterilized, stored in fridge at 4° C., and were used for experiments by dilution it in the cell culture medium as required.
Mouse melanocytes (B10F16 cell line) were maintained in Dulbecco's modified Eagle's medium (DMEM; Invitrogen) supplemented with 10% foetal bovine serum (v/v; Invitrogen), 2 mM glutamine, and 1% non-essential amino-acids.
Cells were sub-cultured at 37° C., 5% CO2 and 95% humidity, were fed approximately 16 h prior to each assay and cell number was determined in duplicates using a Coulter Z2 counter (Beckman Coulter). Mouse melanocytes were sub-cultured when they reached confluence at a split ratio 1:4.

fibroblast cells = assay: Boyden chamber chemotactic migration assay; details: PA treated vs controls; three independent assays
Protocol: 48-well Microchemotaxis Chamber Protocol
NOTE: The following directions assume that you are working with polycarbonate filters.
• 1. Adjust a variable-volume micropipette with a 1 mm tip so that the ejected liquid fills a bottom well. The well will hold 25 to 26 μL. A slight positive meniscus should form when the well is filled; this prevents air bubbles from being trapped when the filter is applied. • 2. Orient the bottom plate on a flat surface so that the NP trademark is at the upper left. Warm chemo-attractants or control reagents to about 37° C. and de-gas them by vortex or vacuum. Fill the bottom wells, completing the 48 wells in no more than 5 minutes, to prevent excessive evaporation. • 3. Cut 1 mm off the corner of a filter membrane and orient it with the cut corner at the upper left. Lift the filter by the ends with two forceps, hold it evenly over the filled wells, and lower it onto them, allowing the middle portion of the filter to make contact first. The filter position can be adjusted at this point if necessary, but note that too much movement will cause contamination between wells. • 4. Apply the silicone gasket with its cut corner at the upper left, then the top plate, aligning its NP trademark with the trademark on the bottom plate. […] With your free hand, apply and tighten the thumb nuts until finger tight.
• 1. […]

human fibroblast cells [1] = assay: uni-directional scratch assay (cell migration); details: fibroblasts pre-treated with PA 80 μM for three days; after 24 hrs
Protocol: Fibroblasts were pre-treated with PA (80 μM) for three days before performing the scratch assay.
(§1) Delicate cell monolayers at confluency are mechanically disrupted leaving an area devoid of cells. This procedure is accomplished by a “scrape” made on the cells and later advancement of the adjacent cells into the open area by cell mechanical migration, which is monitored by microscopy. Depending on the cell type, the covering process can take from many hours to less than a day, which is entirely dependent on the type of cells and extent of the scrape. The rate or the extent of migration of the cells (often termed as repopulation rate) can be calculated by a series of photomicrographs.
• Plate fibroblasts at a density 1×10^4 in 35 mm tissue culture plates and incubate for three days using novel test compounds with a control at 37° C., 5% CO2. • At confluency, displace a group of cells within the […] measure the scrape size at each time point. • Evaluate statistical significance by Student's t test. • Observe significant differences in scrape repairin PA pre-treatment on fibroblasts.

[2] = test system: fibroblasts embedded in collagen lattice; assay: free floating collagen lattice contraction assay; details: PA pre-treated embedded fibroblasts; two independent experiments
Protocol: Collagen type I from bovine skin can be purchased from IBFB Pharma GmbH, Leipzig, Germany and is prepared according to the distributed protocols.
Cells are trypsinized, suspended in complete growth medium and carefully mixed in the collagen solution (collagen in 0.9×DMEM, 10% FCS, 0.2 mM NaOH, prepared at room temperature). Final cell concentrations might range from 0.8×10^4 to 3×10^5 cells/ml lattice. Final concentration of collagen might range from 0.3-0.6 mg/ml lattice.
After mixing, the solution is placed onto bacteriological Petri dishes and immediately put back into the incubator.
Half an hour after polymerization in the incubator, the lattices are carefully detached from the borders of the dishes using a pipette tip. It is important that the Free Floating Collagen Lattices “swim” freely in the medium.
Measurement of the diameter is performed at different time points depending on cell type and seeded cell number. Measurement can be done using a scale paper. From the diameter the area of the collagen lattice can be calculated and their size can be compared at different time points.
Production of collagen lattices: • Estimated time for 20 lattices=1 h conduction plus 1 h until medium addition. • Per assay, 20 empty 35 mm cell culture dishes were pre-warmed to 37° C. […]

human fibroblast cells [3] = assay: bi-directional scratch assay (cell migration); details: fibroblasts pre-treated with PA 80 μM for three days; bidirectional scratch
Protocol: Fibroblasts were pre-treated with PA (80 μM) for three days before performing the scratch assay. Migration was quantified by a micrometer scale (see FIG. 3).
as §1
• Plate fibroblasts at a density 1×10^4 in 35 mm tissue culture plates and incubate for three days using novel test compounds with a control at 37° C., 5% CO2. • At confluency, displace a group of cells within the monolayer by making one streak using a sterile pipette tip. • Photograph under phase contrast microscopy sequentially at an interval of 19 hrs post scraping. • Using an ocular micrometer measure the scrape size at each time point. • Evaluate statistical significance by Student's t test. • Observe significant differences in scrape repairin PA pre-treatment on fibroblasts.

Row | Compound | cell pellet colour, % lighter relative to −control (B10F16 mouse melanocytes; Hydroquinone at 10 μM, after 96 hrs) | enhancement of chemotactic migration towards chemo-attractants (factor) (fibroblast cells) | enhancement of migration (tissue repair) in vitro, uni-directional cell migration (human fibroblast cells [1]) | improvement of collagen contraction [2] | colour change of cell pellet (inhibition of melanin production) (B10F16 mouse melanocytes; PA 80 μM, visual observation) | cell pellet colour, % lighter relative to −control (B10F16 mouse melanocytes; compound at 80 μM, after 96 hrs) | cell pellet colour, % lighter relative to +control (B10F16 mouse melanocytes; compound at 80 μM, after 96 hrs, relative to hydroquinone 10 μM) | improvement of tissue migration over the untreated (human fibroblast cells [3])
1 | Oc1ccc(O)cc1 [+C, Hydroquinone, reference compound] | 78% lighter (78% relative to −control) | – | – | – | – | – | – | –
2 | NC(=O)CCc1ccc(O)cc1 [PA, 3-(4-hydroxyphenyl)propanoic acid amide] | – | 2.7 | more than 60% | 85% | distinct color change from dark to pale | 50% lighter (relative to − control) | 39% lighter (relative to +control) | about 37%
